The results in this text go back to patent publication US9975852B2, “Quinoline sulfonyl derivatives and uses thereof” (Health Sciences North Research Institute, priority 2013, dated 2018).

One series deals with MCF7 cells. The experiment in a line: Clonogenic assay using MCF7 cells. Type of series: cell-based, human. The protocol: (§1) The clonogenic assay was carried out as described in Santi and Lee (2011).^11
Antiproliferative activity of VR-23 was evaluated on a variety of different cell lines, alone or in combination with Bortezomib, by way of SRBSRB or clonogenic assays.

The test system of the next series is Jurkat lymphoma cells. The experiment in a line: Flow cytometry, apoptosis of Jurkat lymphoma cells. Type of series: cell-based. The conditions noted are these: 6 nM Bortezomib, 48 hours. Here is the method:
Asynchronously growing Jurkat lymphoma cells were incubated for 48 hours in the absence (sham control) or presence of Bortezomib alone or in combination with VR-23.

In another series the test system is MDA-MB231. The experiment in a line: SRB antiproliferative assay, MDA-MB231. Type of series: cell-based, human. The protocol:
(§2) Antiproliferative effects were determined by a sulforhodamine B (SRB) based protocol. For a typical screening experiment, 5,000-10,000 cells were inoculated into 100 μl medium per well of a 96-well microtiter plate as described previously. […] Some of the sample wells were fixed with 25 μl of 50% trichloroacetic acid (TCA) as a control of the cell population for each cell line at the time of drug addition (Tz). An aliquot of the frozen stock was thawed and diluted to the desired final maximum test-concentration with complete medium. Two to ten-fold serial dilutions were made to provide a total of seven drug concentrations (and a control [C]). Following addition of drugs, the culture plate was incubated for additional 48 h. Cells were fixed in situ by slowly adding 25 μl of ice-cold 50% (w/v) TCA (final concentration, 10% TCA), and were then incubated for 60 min at 4° C. The supernatant was discarded, and the plate was washed five times with tap water, followed by air-dry. 50 μl of SRB solution at 0.4% (w/v) in 1% acetic acid was added to each well, and the plate was incubated for >30 min at room temperature. Unbound SRB was removed by five washes with tap water, followed by air-drying. […] The relative growth rate (%) was calculated for each of the compound concentrations according to the following formula: (Ti−Tz)/(C−Tz)×100 In the formula, time zero (Tz), control growth (C), and OD for different concentration of tested compounds (Ti). The GI50 for each compound was obtained from a non-linear Sigmoidal dose-response (variable slope) curve which is fitted by GraphPad Prism™ v.4.03 software. Values were calculated for each of these parameters if the level of activity was reached. However, if the effect was not reached or was exceeded, the value for that parameter was expressed as greater or less than the maximum or minimum concentration tested. Flow Cytometry
On the technique in general: Sulforhodamine B stains cellular protein and so reports cell mass.

The subject of the next series is MCF10A. Kind of series: SRB antiproliferative assay, MCF10A non-cancer breast cells. Type of series: cell-based, human. The conditions noted are these: 48 h. The protocol:
as §2

Series [1] is described as follows: Serum ALT liver toxicity, CD-1 mice. The following applies: Chloroquine (Reference).
Method: (§3) Alanine Transaminase (“ALT”, SUP6001-c)/Aspartate Transaminase (“AST”, SUP6002-c) color endpoint assay kits were purchased from ID Labs Biotechnology (London, Ontario, Canada). Elevation of ALT and AST levels in serum samples is used as an indicator of liver damage/injury.
(§4) Animals were monitored for food and water consumption every day, and their body weights and tumor volumes were measured twice per week. Tumor volumes were measured with a digital caliper and were determined by using the following formula: ½ length×width^2. Blood samples were collected via cardiac puncture and processed further for ALT and AST measurements. The animals were then immediately euthanized by carbon dioxide.
(§5) Changes in body weight and the amount and ratio of alanine transaminase (ALT)/aspartate transaminase (AST) were used to measure toxic effects.
Ratio of <2 is considered normal.
The subject of a further series is 184B5. Kind of series: SRB antiproliferative assay, 184B5 non-cancer breast cells. Type of series: cell-based, human. The conditions noted are these: SRB, 48 h, read-out: GI50 184B5. The protocol:
as §2

In another series the test system is MDA-MB468. The experiment in a line: SRB antiproliferative assay, MDA-MB468. Type of series: cell-based, human. The protocol: as §2
The next series deals with MCF7. Kind of series: SRB antiproliferative assay, MCF7. Type of series: cell-based, human. The protocol:
as §2

The next series has as its system MCF10A non-cancer cells. The following applies: 50 μM CQ.
Series [2] concerns MDA-MB231 human metastatic breast cancer cells. Kind of series: Xenograft antitumor activity, ATH490 mice engrafted with MDA-MB231. Type of series: in vivo. Further details: Tumor size D7 / Tumor size D15 / Tumor size D18 / Tumor size D22: unit not given here. Here is the method: Five-week-old female CD-1 and ATH490 (strain code 490) athymic nude mice were purchased from Charles River (Quebec, Canada). The MDA-MB231 human metastatic breast cancer cells were obtained from the American Tissue Culture Collection (ATCC, Manassas, Va., USA). Cells were maintained under humidified condition at 37° C. and 5% CO2 in DMEM high glucose medium (ATCC) supplemented with 10% fetal bovine serum and antibiotics. All animal experiments, including animal handling, care, treatment and endpoint determination, were reviewed and approved by the Laurentian University Animal Care Committee (ACC) and carried out at Laurentian University Animal Care facility (Sudbury, Ontario, Canada)
To determine anti-tumor activity of VR-23 in an animal model, a xenograft model of human breast cancer cells in athymic nude mice was established. Exponentially growing MDA-MB231 cells were harvested and counted for inoculation into mice. Each mouse was subcutaneously injected at the flank with 10×10^6 cells in 0.2 ml ice cold 1×PBS. When tumor size reached 4-5 mm in diameter (n=4-5 per group), mice were randomly assigned into five (or more) groups.

Series [3] is described as follows: Organ weight and histology (liver, spleen, kidney, lung) of ATH490 mice. The protocol: All values are presented as mean±S.E.M. Analyses were performed using GraphPad Prism software (GraphPad Software). Comparison between the groups was made by p value determination using one-way ANOVA. A p value of <0.05 was considered to be statistically significant. […] Each organ weight (%) is normalized with total body weight (BW).
The H&E stained slides were taken with a 20× objective using a Zeiss EPI-fluorescent microscope (bright field). […] At least 10 fields for each slide (one slide per mouse, and 3 mice per group) were examined.
Images were taken with a 10× objective using a Zeiss EPI-fluorescent microscope. […] Drug administration was carried out as described in Table IX and in the Materials and Methods section herein with respect to Animal Studies.
The images of the H&E stained renal tissues were taken with a Zeiss EPI-fluorescent (bright field) microscope using a 10× objective.

For series [4] the following is noted: ATH490 mice.
Method: as §3, §4, §5
Ratio of <2 is considered normal.
For a further series, the system named is U87MG brain cancer cells. Kind of series: Clonogenic assay, U87MG brain cancer cells. Type of series: cell-based. The following applies: Temozolomide. The protocol: as §1
Where [5] appears, read: Homo sapiens, MCF7, SRB, 48 h, read-out: GI50 MCF7.

As a reminder, the GI50 is the concentration giving 50% growth inhibition.

Each structure is given as a SMILES string. Read-outs that look alike come from different tables or passages of the source.

As for `CC(C)C[C@H](NC(=O)[C@H](Cc1ccccc1)NC(=O)c1cnccn1)B(O)O` [Bortezomib], the Average colony number with MCF7 cells (Bortezomib at 2 nM, series with non-treated control 34) was determined as 15; with MCF7 cells (Bortezomib at 4 nM, series with non-treated control 34) it was 12; in the series with MCF7 cells (Bortezomib at 4 nM, series with non-treated control 36) it was 11; in the series with MCF7 cells (Bortezomib at 6 nM, series with non-treated control 36), 6. For the same compound, in the series on Jurkat lymphoma cells, the “Cell killing by apoptosis” value is on record as “neither 6 nM of Bortezomib (FIG. 4, ii) nor 0.75 μM of VR-23 (FIG. 4, iv) induced substantial cell killing by apoptosis”.
Turning to `CCN(CC)CCCC(C)Nc1ccnc2cc(Cl)ccc12` (centres unmarked) [Chloroquine, reference compound], the GI50 is 22.5 ± 1.44 µM with MDA-MB231 (Homo sapiens, MDA-MB-231, 48 h); 81.3 ± 1.45 µM in the series on MCF10A (Homo sapiens, MCF-10A); 76.1 ± 1.13 µM with 184B5 (Homo sapiens, 184B5); 28.6 ± 1.25 µM in the series with MDA-MB468 (Homo sapiens, MDA-MB-468, 48 h); 38.4 ± 1.2 µM in the series with MCF7 (Homo sapiens, MCF7, 48 h, read-out: GI50 MCF7); about 38 µM with MCF7 (Homo sapiens, MCF7, read-out: GI50 value of CQ on MCF7). Besides, in series [1], the ALT was 6.03 ± 4.40 IU/L blood. Besides, the “Apoptosis in MCF10A” value in the series with MCF10A non-cancer cells is recorded as “some cells underwent apoptosis”.
On to `N.N.[Cl][Pt][Cl]` [Cisplatin, reference compound], for which the GI50 in the series on MDA-MB231 (48 h) was 23.65 ± 0.23 µM; with MCF10A it was 51.5 ± 0.65 µM; in the series with 184B5, 25.5 ± 0.35 µM; with MDA-MB468 (48 h) it was 31 ± 0.45 µM; in the series on MCF7 (SRB, 48 h, read-out: GI50 MCF7) it was 25.8 ± 0.38 µM.
Turning to `CC(=O)O[C@H]1C(=O)[C@@]2(C)[C@H]([C@H](OC(=O)c3ccccc3)[C@]3(O)C[C@H](OC(=O)[C@H](O)[C@@H](NC(=O)c4ccccc4)c4ccccc4)C(C)=C1C3(C)C)[C@]1(OC(C)=O)CO[C@@H]1C[C@@H]2O` [Paclitaxel], the “Survival (% of the control)” value in the series on MCF7 cells (1 nM of Paclitaxel alone) worked out at 35.8%; with MCF7 cells (1 nM of Paclitaxel alone, listed as paclitaxel), 35.8%; in the series with MCF7 cells (2 nM of Paclitaxel alone), 9.5%. The “Tumor size D7” value in [2] (day 7 post-treatment, dosing as in Table IX B) came out at 47.63 ± 8.67. Moreover, in series [2] (day 15 post-treatment, dosing as in Table IX B), the “Tumor size D15” value worked out at 23.25 ± 11.63. Also, the “Tumor size D18” value in series [2] (day 18 post-treatment, dosing as in Table IX B) was 25.20 ± 13.69. Besides, in series [2] (day 22 post-treatment, dosing as in Table IX B), the “Tumor size D22” value is given as 16.59 ± 2.66. Further, in series [2] (paclitaxel 20 mg/kg/week), the “Reduction of tumor burden” value turned out to be 18.4 fold. Also, in [3] (ATH490 mice, VR-23, 30 mg/week, Paclitaxel, 20 mg/week), the “Microscopic Changes (liver)” value is on record as “High rate of mitotic cells in liver”. In series [3] (VR-23 30 mg/kg, paclitaxel 20 mg/kg), the “Spleen histology (H&E)” value was “side effects including germinal center (GC) expansion”. Besides, the “Kidney histology (H&E), nephrotoxicity” value in series [3] (VR-23 30 mg/kg, paclitaxel 20 mg/kg, four weeks) was “high cellularity, endocapillary proliferative glomerulonephritis (enlarged glomeruli), and collapsed Bowman space”. The “Cases with liver cells with densely stained nucleic acids” value in series [3] (paclitaxel 20 mg/kg) is recorded as “approximately 15%”. The Weight of spleen entry in series [3] (paclitaxel-treated, 29 days post-treatment) is “weight of spleen was higher”. Also, the ALT in [4] worked out at 35.91 ± 4.26 U/L. The same compound returned an AST in series [4] of 84.4 ± 29.21 U/L.
Turning to `Cn1nnc2c(C(N)=O)ncn2c1=O` [Temozolomide], the “# Colonies (Experiment #1)” value is listed as 64 with U87MG brain cancer cells (1 μM); 39 in the series on U87MG brain cancer cells (5 μM); 4 in the series with U87MG brain cancer cells (10 μM); 2 in the series on U87MG brain cancer cells (20 μM); 2 in the series with U87MG brain cancer cells (50 μM). The “# Colonies (Experiment #2)” value was 94 in the series on U87MG brain cancer cells (1 μM); 50 with U87MG brain cancer cells (5 μM); 5 with U87MG brain cancer cells (10 μM); 1 with U87MG brain cancer cells (20 μM); 1 with U87MG brain cancer cells (50 μM).
With `Cc1ccc(S(=O)(=O)N2CCN(c3ccnc4cc(Cl)ccc34)CC2)cc1` [VR-22 (38), 7-Chloro-4-(4-tosylpiperazin-1-yl)quinoline], the GI50 with MDA-MB231 (Homo sapiens, MDA-MB-231, 48 h) is 6.16 ± 0.51 µM; in the series with MCF10A (Homo sapiens, MCF-10A), 12.6 ± 0.66 µM; in the series on 184B5 (Homo sapiens, 184B5), 9.56 ± 0.53 µM; in the series on MDA-MB468 (Homo sapiens, MDA-MB-468, 48 h) it was 5.77 ± 0.41 µM; with MCF7 (setting [5]) it was 5.25 ± 0.45 µM.
`O=S(=O)(c1ccc(Cl)cc1)N1CCN(c2ccnc3cc(Cl)ccc23)CC1` [VR-24 (39), 7-Chloro-4-(4-(4-chlorophenylsulfonyl)piperazin-1-yl)quinoline]: the GI50 in the series on MDA-MB231 (Homo sapiens, MDA-MB-231, 48 h) was determined as 11.8 ± 0.91 µM; in the series on MCF10A (Homo sapiens, MCF-10A), 9.7 ± 0.81 µM; in the series on 184B5 (Homo sapiens, 184B5), 6.36 ± 0.34 µM; with MDA-MB468 (Homo sapiens, MDA-MB-468, 48 h), 8.34 ± 0.73 µM; in the series with MCF7 (setting [5]), 4.31 ± 0.32 µM.
For the compound `O=[N+]([O-])c1cccc(S(=O)(=O)N2CCN(c3ccnc4cc(Cl)ccc34)CC2)c1` [VR-25 (40), 7-Chloro-4-(4-(3-nitrophenylsulfonyl)piperazin-1-yl)quinoline], the GI50 with MDA-MB231 (Homo sapiens, MDA-MB-231, 48 h) is 20.4 ± 1.15 µM; in the series on MCF10A (Homo sapiens, MCF-10A), 31.1 ± 1.01 µM; in the series with 184B5 (Homo sapiens, 184B5), 15.8 ± 0.88 µM; in the series on MDA-MB468 (Homo sapiens, MDA-MB-468, 48 h), 9.21 ± 0.65 µM; in the series on MCF7 (setting [5]), 8.62 ± 0.38 µM.
For `CN(C)c1cccc2c(S(=O)(=O)NCCCNc3ccnc4cc(Cl)ccc34)cccc12` [VR-65 (41), 5-Dimethylamino-naphthalene-1-sulfonic acid [3-(7-chloro-quinolin-4-ylamino)-propyl]-amide], the GI50 came to 12.7 ± 1.01 µM in the series with MDA-MB231 (Homo sapiens, MDA-MB-231, 48 h); 2.56 ± 0.03 µM in the series with MCF10A (Homo sapiens, MCF-10A); 1.67 ± 0.08 µM in the series with 184B5 (Homo sapiens, 184B5); 4.63 ± 0.35 µM in the series on MDA-MB468 (Homo sapiens, MDA-MB-468, 48 h).
